# Target: GluA1o-γ8 (GRIA1o-CACNG8 fusion construct) (Homo sapiens (Human), UniProt P42261+Q8WXS5)
# Experiment: Calcium flux assay (FLIPR), inhibition of TARP γ8 dependent AMPA receptor activity
# Type: cell-based
# Settings: GluA1o-γ8 (GRIA1o-CACNG8 fusion) in HEK293 cells, calcium flux after 15 μM glutamate
# In short: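 Glutamate (15 μM) was added to a stable HEK293 line carrying the GluA1o–γ8 fusion, which had been preincubated with compound and calcium dye in HEPES buffer, pH 7.4. Normalized FLIPR fluorescence (no compound vs 10 μM CP465022) was fitted with four parameters; pIC50 is the midpoint's negative log.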
# GluA1o-γ8 (GRIA1o-CACNG8 fusion construct), sequence (P42261 other isoform, or with tags, fused parts or gaps): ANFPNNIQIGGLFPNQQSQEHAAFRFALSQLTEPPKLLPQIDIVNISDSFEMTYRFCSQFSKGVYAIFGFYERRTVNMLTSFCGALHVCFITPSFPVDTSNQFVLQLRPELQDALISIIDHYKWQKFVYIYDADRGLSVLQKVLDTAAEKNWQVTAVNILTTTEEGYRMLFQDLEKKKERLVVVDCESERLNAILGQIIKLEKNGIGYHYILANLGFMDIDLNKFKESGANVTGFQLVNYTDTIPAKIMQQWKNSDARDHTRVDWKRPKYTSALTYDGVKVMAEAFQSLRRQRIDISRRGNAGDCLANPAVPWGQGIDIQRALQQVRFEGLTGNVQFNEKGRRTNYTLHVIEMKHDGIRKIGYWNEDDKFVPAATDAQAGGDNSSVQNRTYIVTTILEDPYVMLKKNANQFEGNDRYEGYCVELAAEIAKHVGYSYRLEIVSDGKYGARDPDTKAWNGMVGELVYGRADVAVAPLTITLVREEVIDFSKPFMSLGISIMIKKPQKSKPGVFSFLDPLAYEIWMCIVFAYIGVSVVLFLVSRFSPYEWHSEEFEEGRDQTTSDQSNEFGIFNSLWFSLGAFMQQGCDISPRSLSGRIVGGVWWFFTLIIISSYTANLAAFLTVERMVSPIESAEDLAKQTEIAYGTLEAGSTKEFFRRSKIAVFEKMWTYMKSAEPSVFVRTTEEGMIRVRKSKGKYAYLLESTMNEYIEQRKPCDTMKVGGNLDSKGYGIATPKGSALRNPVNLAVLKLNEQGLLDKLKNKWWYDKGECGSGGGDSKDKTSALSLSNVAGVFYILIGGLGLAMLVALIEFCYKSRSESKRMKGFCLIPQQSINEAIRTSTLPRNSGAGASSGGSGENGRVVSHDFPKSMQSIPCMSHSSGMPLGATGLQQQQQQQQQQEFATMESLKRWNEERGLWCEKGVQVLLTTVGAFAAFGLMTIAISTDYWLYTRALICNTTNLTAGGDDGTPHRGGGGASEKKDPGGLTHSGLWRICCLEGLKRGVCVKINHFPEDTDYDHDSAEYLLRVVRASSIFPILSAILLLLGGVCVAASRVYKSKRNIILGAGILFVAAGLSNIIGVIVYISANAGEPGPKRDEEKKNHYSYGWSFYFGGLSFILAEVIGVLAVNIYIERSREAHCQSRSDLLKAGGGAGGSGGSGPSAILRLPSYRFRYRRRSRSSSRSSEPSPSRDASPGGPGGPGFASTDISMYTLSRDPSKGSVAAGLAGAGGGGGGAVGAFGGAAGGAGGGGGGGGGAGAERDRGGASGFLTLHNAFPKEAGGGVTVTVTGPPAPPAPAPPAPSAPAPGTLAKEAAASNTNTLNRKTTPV
row,Compound,IC50
1,"CSc1ccc2nc(-c3ccc(F)cc3)n(-c3ccc4[nH]ccc4c3)c2n1 [Example 155, 2-(4-Fluorophenyl)-3-(1H-indol-5-yl)-5-methylsulfanyl-imidazo[4,5-b]pyridine]",39.8 nM
2,"Oc1ccc2nc(-c3ccccc3)n(-c3ccc4[nH]ncc4c3)c2n1 [Example 156, 3-(1H-Indazol-5-yl)-2-phenyl-imidazo[4,5-b]pyridin-5-ol]",25.1 nM
3,"COc1ccc2nc(C3CC3)n(-c3ccc4[nH]ncc4c3)c2n1 [Example 157, 2-Cyclopropyl-3-(1H-indazol-5-yl)-5-methoxy-imidazo[4,5-b]pyridine]",12.6 nM
4,"CCc1nc2ccc(C(F)(F)F)nc2n1-c1ccc2[nH]c(=O)oc2c1 [Example 158, 6-[2-Ethyl-5-(trifluoromethyl)imidazo[4,5-b]pyridin-3-yl]-3H-1,3-benzoxazol-2-one]",31.6 nM
5,"CC(C)c1nc2ccc(C(F)(F)F)nc2n1-c1ccc2[nH]c(=O)oc2c1 [Example 159, 6-[2-Isopropyl-5-(trifluoromethyl)imidazo[4,5-b]pyridin-3-yl]-3H-1,3-benzoxazol-2-one]",15.8 nM
6,"O=c1[nH]c2ccc(-n3c(C4CCOCC4)nc4ccc(C(F)(F)F)nc43)cc2o1 [Example 160, 6-[2-Tetrahydropyran-4-yl-5-(trifluoromethyl)imidazo[4,5-b]pyridin-3-yl]-3H-1,3-benzoxazol-2-one]",1000 nM
7,"CCOCc1nc2ccc(C(F)(F)F)nc2n1-c1ccc2[nH]c(=O)oc2c1 [Example 162, 6-[2-(Ethoxymethyl)-5-(trifluoromethyl)imidazo[4,5-b]pyridin-3-yl]-3H-1,3-benzoxazol-2-one]",631 nM
8,"CC(C)(C)c1nc2ccc(C(F)(F)F)nc2n1-c1ccc2[nH]c(=O)oc2c1 [Example 163, 6-[2-tert-Butyl-5-(trifluoromethyl)imidazo[4,5-b]pyridin-3-yl]-3H-1,3-benzoxazol-2-one]",158 nM
9,"O=C1Cc2cc(-n3c(C4CC(F)C4)nc4ccc(C(F)(F)F)nc43)ccc2N1 (centres unmarked) [Example 166, 5-[2-(3-Fluorocyclobutyl)-5-(trifluoromethyl)imidazo[4,5-b]pyridin-3-yl]indolin-2-one]",10 nM

# Compounds with a lower IC50, results first:
row,IC50,Compound
1,6.31 nM,"CC[C@H](C)c1nc2ccc(C(F)(F)F)nc2n1-c1ccc2[nH]ncc2c1 [Example 168, (S)-3-(1H-Indazol-5-yl)-2-sec-butyl-5-(trifluoromethyl)imidazo[4,5-b]pyridine]"
2,5.01 nM,"CC(F)(F)c1nc2ccc(C(F)F)nc2n1-c1ccc2c(c1)CC(=O)N2 [Example 154, 5-[2-(1-Difluoroethyl)-5-(difluoromethyl)imidazo[4,5-b]pyridin-3-yl]indolin-2-one]"
3,3.16 nM,"Fc1ccc(-c2nc3ccc(C(F)(F)F)nc3n2-c2ccc3[nH]ncc3c2)nc1 [Example 169, 2-(5-Fluoro-2-pyridyl)-3-(1H-indazol-5-yl)-5-(trifluoromethyl)imidazo[4,5-b]pyridine]"
4,3.16 nM,"CC(C)(C)c1ccc2nc(C(F)(F)F)n(-c3ccc4[nH]ncc4c3)c2n1 [Example 171, 5-tert-Butyl-3-(1H-indazol-5-yl)-2-(trifluoromethyl)imidazo[4,5-b]pyridine]"
5,2 nM,"CC[C@@H](C)c1nc2ccc(C(F)(F)F)nc2n1-c1ccc2[nH]ncc2c1 [Example 167, (R)-3-(1H-Indazol-5-yl)-2-sec-butyl-5-(trifluoromethyl)imidazo[4,5-b]pyridine]"
6,1.58 nM,"Fc1cc(-c2nc3ccc(C(F)(F)F)nc3n2-c2ccc3[nH]ncc3c2)ccn1 [Example 165, 2-(2-Fluoro-4-pyridyl)-3-(1H-indazol-5-yl)-5-(trifluoromethyl)imidazo[4,5-b]pyridine]"
7,1.26 nM,"O=C1Cc2cc(-n3c(-c4ccnc(F)c4)nc4ccc(C(F)(F)F)nc43)ccc2N1 [Example 164, 5-[2-(2-Fluoro-4-pyridyl)-5-(trifluoromethyl)imidazo[4,5-b]pyridin-3-yl]indolin-2-one]"
8,0.631 nM,"CC(C)c1ccc2nc(C(F)(F)F)n(-c3ccc4[nH]ncc4c3)c2n1 [Example 170, 3-(1H-Indazol-5-yl)-5-isopropyl-2-(trifluoromethyl)imidazo[4,5-b]pyridine]"

# From patent publication US11312712B2, “Azabenzimidazoles and their use as AMPA receptor modulators” (Janssen Pharmaceutica NV, priority 2015, dated 2022)
